The values below come from patent publication US20250084074A1, “SUBSTITUTED HETEROCYCLES AS HSET INHIBITORS” (MERCK PATENT GMBH, priority 2022, published 2025).

Chain of HSET full length protein (Q9BW19 whole entry): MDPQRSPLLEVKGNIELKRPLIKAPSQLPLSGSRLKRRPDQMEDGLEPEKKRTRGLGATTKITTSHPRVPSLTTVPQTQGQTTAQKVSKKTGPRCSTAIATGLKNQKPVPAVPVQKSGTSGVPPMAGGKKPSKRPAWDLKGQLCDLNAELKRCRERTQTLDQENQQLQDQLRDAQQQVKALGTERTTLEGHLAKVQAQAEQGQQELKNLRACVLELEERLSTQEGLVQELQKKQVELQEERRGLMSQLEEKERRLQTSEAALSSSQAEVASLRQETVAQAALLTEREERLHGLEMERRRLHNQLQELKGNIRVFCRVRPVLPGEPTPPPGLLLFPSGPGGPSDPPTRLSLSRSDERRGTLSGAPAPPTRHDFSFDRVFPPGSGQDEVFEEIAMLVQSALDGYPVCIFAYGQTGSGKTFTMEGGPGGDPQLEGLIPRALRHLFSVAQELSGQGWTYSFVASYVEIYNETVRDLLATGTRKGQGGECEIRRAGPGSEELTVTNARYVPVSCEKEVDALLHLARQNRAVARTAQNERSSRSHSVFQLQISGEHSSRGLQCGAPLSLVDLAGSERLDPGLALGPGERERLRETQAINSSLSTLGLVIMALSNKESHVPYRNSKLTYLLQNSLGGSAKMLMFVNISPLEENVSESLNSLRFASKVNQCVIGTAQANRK

This test has as its target HSET full length protein (Homo sapiens (Human), UniProt Q9BW19). The test can be described thus: HSET ADP-Glo Assay S - 3 μM ATP. In kind it is biochemical. Conditions: 5 nM HSET, 70 μg/mL microtubule, 80 min at rt, read-out: COMBINED HSET ADP GLO IC50. As for the experimental part: Example 281: Testing compounds of the present invention for inhibitory activities against HSET—HSET ADP-Glo Assay S—3 μM ATP
Reagents: (+4° C. Storage) • Paclitaxel Prod.No.TXD.01 2 mM in DMSO (from Universal Biologicals Cambridge). • Tubulin Protein (Pre-formed Microtubules): Bovine Brain Prod.No.MT001-XL Lot.025 10 mg/mL (from Universal Biologicals Cambridge).
Reagents: (−80° C. Storage) • MT001-XL—Tubulin Protein (Pre-formed Microtubules): Bovine Brain—reconstituted in buffer—15 mM PIPES pH7, 1 mM MgCl2, 20 μM paclitaxel (aliquots at 10 mg/mL) from Universal Biologicals Cambridge. • HSET full length protein—Current batch is FL HSET Prep1 (SEQ-000096_002-01_01) • Buffer is 20 mM Hepes pH 7.5, 200 mM NaCl, 2 mM TCEP, 5% glycerol (5 μL aliquots at 10.2 μM)
Reagents: (−20° C. Storage) • ADP-Glo Kinase Assay kit (Promega Prod.No.V9102) 10,000 assay points • ADP-Glo reagent (50 mL), Kinase Detection Reagent (100 mL), and Ultrapure ATP (10 mM) aliquoted
Buffer Stocks (filtered and stored at rt for up to 1 month) • HEPES acid, 4-(2-Hydroxyethyl)piperazine-1-ethanesulfonic acid MW:238, 238.3 mg/mL=1 M • 7149 mg/30 mL=1M (pH to 6.8 with 5 M NaOH) • PIPES, 1,4-Piperazinediethanesulfonic acid MW: 302.4, 30.24 mg/mL=100 mM; 907.2 mg/30 mL=100 mM (pH to 7 with 5 M NaOH, white cloudy suspension until the pH changes) • EGTA, Ethylene glycol-bis(2-aminoethylether)-N,N,N′,N′-tetraacetic acid MW: 380.35, 38.035 mg/mL=100 mM • 1901.75 mg/50 mL=100 mM (pH to ˜7 with 5 M NaOH)—takes a long time to get into solution and for pH to stabilize • Triton-X-100, MW: 625, 62.5 mg/mL=100 mM (6.25% w/v) (viscous, pipette Triton X-100 with a Gilson using a trimmed pipette tip)
ECHO Protocol • Create an ECHO intermediate plate by adding 24.5 μL DMSO to columns 1 & 2, and 40 μL DMSO to columns 23 & 24 of an ECHO 384PP plate • Add 100 nL of compound/DMSO per well in 384-well Proxi-Plate Plus (white) —Perkin Elmer Cat #6008289 using ECHO dose response protocol 100 nL normal to proxi_8pt_200 uM.
Assay buffer (Keep on ice): HEPES pH 6.8, MgCl2, EGTA, Triton X-100, DTT, HPLC H2O Microtubule Working Solution (3.2): • 1 ml PM buffer: PIPES pH 7.0, MgCl2, HPLC H2O, Paclitaxel, mix well, store at rt • Then add 26.4 μL of 10 mg/ml microtubules to 724 μL of the above PM buffer to make 750 μL of microtubule working solution @350 μg/mL microtubules (store at rt)
Stock HSET enzyme solution (3.1)—keep on ice • Add 1.33 μL 10.2 μM HSET Prepi (SEQ-000096_002-01_01) to 1358 μL assay buffer to make a 10 nM stock for a 5 nM final assay concentration (1/1020 dilution).
HSET/Microtubule working solution (3.3) • Mix solutions 3.1 and 3.2 in the ratio of 2.5:1 (1214.3 μL 3.1+485.7 μL 3.2) keep at rt for 15 min • 3.2 is diluted 3.5-fold, 3.1 is diluted 1.4-fold BLANK solution is 357 μL 2XAB+143 μL microtubule working solution 3.2. (Same proportions as HSET/Microtubule working solution (3.3))
ATP Working solution is 1 μL 10 mM UltraPure ATP (Promega kit)+999 μL ddH20 gives 10 μM ATP for a 3 μM final assay concentration, stored on ice.
Assay procedure in PROXIPLATE 384 PLUS WHITE (Perkin Elmer) plates (Remove 2.4 mL ADP Glo and 4.5 mL Kinase detection reagent from freezer to warm up to rt) • Add 3.5 μL BLANK solution to assay plate (column 12) • Add 3.5 μL HSET/Microtubule solution (3.3) (columns 1-11 & 13-24) • Centrifuge at 1000 rpm for 1 min • (pre-incubate enzyme and compound for 10 min)
Add 1.5 μL of 10 μM ATP to start reaction gives a final [HSET] of 5 nM, [ATP] of 3 μM and [microtubule] of 70 μg/mL, centrifuge at 1000 rpm for 1 min and incubated at rt for 80 min.
After the 80-minute incubation, stop reaction by adding 5 μL ADP-Glo reagent to all wells. Centrifuge for 1 min at 1000 rpm, leave for 40 min at rt.
In the dark/away from direct light, add 10 μL Kinase Detection Reagent (KDR) to all wells, Seal plate with a Topseal (Perkin Elmer Cat #6050185) and centrifuge as above, leave for 40 min at rt covered in foil. […]
On the technique in general: ADP-Glo first removes unused ATP, then detects ADP through luciferase.
For the compound `CCOC(=O)c1sc(NC(=O)CCNC(=O)c2cc(/C=C/c3ccccc3)cc(C(=O)OC)c2)nc1C` [Example 22, Ethyl 2-[3-[[3-methoxycarbonyl-5-[(E)-styryl]benzoyl]amino]-propanoylamino]-4-methyl-thiazole-5-carboxylate], the IC50 was 6350 nM.

As for `CCOC(=O)c1sc(NC(=O)CCNC(=O)c2cccc(-c3ncon3)c2)nc1C` [Example 23, Ethyl 2-(3-(3-(1,2,4-oxadiazol-3-yl)benzamido)propanamido)-4-methylthiazole-5-carboxylate], the IC50 turned out to be 146 nM.

For `CCOC(=O)c1sc(NC(=O)CCNC(=O)c2cc(Cl)cc(-c3noc(C)n3)c2)nc1C` [Example 24, Ethyl 2-(3-(3-chloro-5-(5-methyl-1,2,4-oxadiazol-3-yl)benzamido)-propanamido)-4-methylthiazole-5-carboxylate], the concentration for half-maximal inhibition (IC50) was found to be 55 nM.

`CCCOC(=O)c1sc(NC(=O)CCNC(=O)c2cc(Cl)cc(-c3noc(C)n3)c2)nc1C` [Example 25, Propyl 2-(3-(3-chloro-5-(5-methyl-1,2,4-oxadiazol-3-yl)benzamido)propanamido)-4-methylthiazole-5-carboxylate]: the IC50 was 13 nM.

Take `CCCOC(=O)c1sc(NC(=O)CCNC(=O)c2cc(C)cc(-c3noc(C)n3)c2)nc1C` [Example 26, Propyl 4-methyl-2-(3-(3-methyl-5-(5-methyl-1,2,4-oxadiazol-3-yl)benzamido)propanamido)thiazole-5-carboxylate]: the IC50 worked out at 13 nM.

For `CCCOC(=O)c1cc(NC(=O)CCNC(=O)c2cc(C)cc(-c3noc(C)n3)c2)nn1C` [Example 27, Propyl 1-methyl-3-(3-(3-methyl-5-(5-methyl-1,2,4-oxadiazol-3-yl)benzamido)propanamido)-1 H-pyrazole-5-carboxylate], the IC50 came to 116 nM.

For `CCCOC(=O)c1sc(NC(=O)CCNC(=O)c2cc(C#N)cc(C(F)(F)F)c2)nc1C` [Example 28, Propyl 2-(3-(3-cyano-5-(trifluoromethyl)benzamido)propanamido)-4-methylthiazole-5-carboxylate], the 50% inhibitory concentration (IC50) turned out to be 2240 nM.

Consider `CCCOC(=O)c1sc(NC(=O)CCNC(=O)c2cc(C(=O)OC)cc(C(C)(C)C)c2)nc1C` [Example 29, Propyl 2-(3-(3-(tert-butyl)-5-(methoxycarbonyl)benzamido)propanamido)-4-methylthiazole-5-carboxylate], for which the IC50 was 77 nM.

On to `CCCOC(=O)c1sc(NC(=O)CCNC(=O)c2cc(C#N)cc(C(=O)OC)c2)nc1C` [Example 30, Propyl 2-(3-(3-cyano-5-(methoxycarbonyl)benzamido)propanamido)-4-methylthiazole-5-carboxylate], for which the IC50 came out at 186 nM.

In the case of `Cc1nc(-c2cc(Cl)cc(C(=O)NCCC(=O)Nc3nc(C)c(C(C)(C)C)s3)c2)no1` [Example 31, N-[3-[(5-tert-butyl-4-methyl-thiazol-2-yl)amino]-3-oxo-propyl]-3-chloro-5-(5-methyl-1,2,4-oxadiazol-3-yl)benzamide], the IC50 stood at 191 nM.

Regarding `CCCOC(=O)c1sc(NC(=O)CCNC(=O)c2cc(-c3noc(C)n3)cc(C(F)(F)F)c2)nc1C` [Example 32, Propyl 4-methyl-2-(3-(3-(5-methyl-1,2,4-oxadiazol-3-yl)-5-(trifluoromethyl)benzamido)propanamido)thiazole-5-carboxylate], the IC50 was determined as 11 nM.

As to `CCCOC(=O)c1sc(NC(=O)CCNC(=O)c2cc(C(=O)OC)cc([N+](=O)[O-])c2)nc1C` [Example 33, Propyl 2-[3-[(3-methoxycarbonyl-5-nitro-benzoyl)amino]propanoylamino]-4-methyl-thiazole-5-carboxylate], the half-inhibitory concentration (IC50) came to 161 nM.

Turning to `CCOC(=O)c1sc(NC(=O)CCNC(=O)c2cccc(-c3nc(C)no3)c2)nc1C` [Example 34, Ethyl 4-methyl-2-(3-(3-(3-methyl-1,2,4-oxadiazol-5-yl)benzamido)propanamido)thiazole-5-carboxylate], the IC50 turned out to be 101 nM.

On to `Cc1nc(-c2cccc(C(=O)NCCC(=O)Nc3nc(C)c(C(=O)OCC4CC4)s3)c2)no1` [Example 35, Cyclopropylmethyl 4-methyl-2-(3-(3-(5-methyl-1,2,4-oxadiazol-3-yl)benzamido)propanamido)thiazole-5-carboxylate], for which the concentration for half-maximal inhibition (IC50) was determined as 31 nM.

In the case of `CCOC(=O)c1sc(NC(=O)CCNC(=O)c2cccc(-c3noc(CC)n3)c2)nc1C` [Example 36, Ethyl 2-(3-(3-(5-ethyl-1,2,4-oxadiazol-3-yl)benzamido)propanamido)-4-methylthiazole-5-carboxylate], the concentration for half-maximal inhibition (IC50) came out at 2100 nM.

In the case of `CCOC(=O)c1sc(NC(=O)CCNC(=O)c2cccc(-c3nnc(C)o3)c2)nc1C` [Example 37, Ethyl 4-methyl-2-(3-(3-(5-methyl-1,3,4-oxadiazol-2-yl)benzamido)propanamido)thiazole-5-carboxylate], the IC50 was 260 nM.

For `CCOC(=O)c1sc(NC(=O)CCNC(=O)c2cccc(-c3nnn(C)n3)c2)nc1C` [Example 38, Ethyl 4-methyl-2-(3-(3-(2-methyl-2H-tetrazol-5-yl)benzamido)propanamido)thiazole-5-carboxylate], the concentration for half-maximal inhibition (IC50) amounted to 27 nM.

Turning to `Cc1nc(NC(=O)CCNC(=O)c2cccc(-c3nnn(C)n3)c2)sc1C(=O)OC(C)(C)C` [Example 39, tert-Butyl 4-methyl-2-[3-[[3-(2-methyltetrazol-5-yl)benzoyl]amino]propanoylamino]thiazole-5-carboxylate], the half-inhibitory concentration (IC50) was found to be 8 nM.

In the case of `Cc1nc(NC(=O)CCNC(=O)c2cccc(-c3nnn(C)n3)c2)sc1C(=O)OC(C)C` [Example 40, Isopropyl 4-methyl-2-[3-[[3-(2-methyltetrazol-5-yl)benzoyl]amino]propanoylamino]thiazole-5-carboxylate], the IC50 is 10 nM.

`Cc1nc(NC(=O)CCNC(=O)c2cccc(-c3nnn(C)n3)c2)sc1C(C)(C)C` [Example 41, N-[3-[(5-tert-butyl-4-methyl-thiazol-2-yl)amino]-3-oxo-propyl]-3-(2-methyltetrazol-5-yl)benzamide]: the IC50 is 184 nM.

In the case of `CCOC(=O)c1cccc(C(=O)NCCC(=O)Nc2nc(C)c(C(=O)OCC)s2)c1` [Example 42, Ethyl 2-(3-(3-(ethoxycarbonyl)benzamido)propanamido)-4-methylthiazole-5-carboxylate], the IC50 amounted to 1790 nM.

For `CCOC(=O)c1sc(NC(=O)CCNC(=O)c2cc(C)cc(-c3noc(C)n3)c2)nc1C` [Example 43, Ethyl 4-methyl-2-(3-(3-methyl-5-(5-methyl-1,2,4-oxadiazol-3-yl)benzamido)propanamido)thiazole-5-carboxylate], the IC50 came to 44 nM.

One may read the IC50 as the concentration that gives 50% inhibition.
